According to patent US11566057B2, “Long-acting co-agonists of the glucagon and GLP-1 receptors” (Merck Sharp & Dohme Corp., priority 2017, dated 2023):
Read-outs that look alike come from different tables or passages of the source. Numbered stars: 1 amine (or outer) side, 2 acyl side, 3 side chain; on linkers, the order of the positions; unused ones are H or OH. Square brackets hold non-standard residues; d marks the D form. Side chains are listed from the residue outwards. Peptide text beside a SMILES is read from it. * marks the point of attachment. C20 diacid = O=C(O)CCCCCCCCCCCCCCCCCCC(=O)*; Phe(4-CH2NH2) = NCc1ccc(C[C@H](N)C(=O)O)cc1; γGlu = O=C(O)[C@H](CCC(=O)[*:2])N[*:1]; Met(O2) = CS(=O)(=O)CC[C@H](N)C(=O)O; AEEA = NCCOCCOCC(=O)O; Aib = CC(C)(N)C(=O)O

Tests used:
human GCGR = target: T1, human GCGR (Homo sapiens, UniProt P47871); assay: cAMP activity assay at the Glucagon receptor (GCGR); format: cell-based; conditions: for hGCGR/hGLP1R (hTone): ratio of GCGR EC50 to GLP1R EC50
T1 construct: expressed in transfected cells; growth medium holds Blasticidin and Hygromycin
Method in brief: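 Peptides serially diluted from DMSO (10 points) and added to frozen-stock cells bearing human GLP1R (10,000 cells/well) or GCGR (30,000 cells/well), 1 h at RT, dark. EC50 by four-parameter logistic fit of HitHunter cAMPXS luminescence, read following overnight RT incubation.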

human GLP1R = target: T2, human GLP1R (Homo sapiens, UniProt P43220); assay: cAMP activity assay at the GLP-1 receptor (GLP1R); format: cell-based
T2 construct: expressed in transfected cells; growth medium holds Blasticidin and Hygromycin
Protocol: Activity of the peptides at the Glucagon receptor (GCGR) and GLP-1 receptor (GLP1R) was measured in a cAMP activity assay.
GCG/GLP-1 receptor co-agonist peptides were dissolved in 100% DMSO (dimethyl sulfoxide) and serially diluted to generate 10 point titrations. The peptide solutions were then transferred into 384-well assay plates (150 nL/well). Assay ready frozen cells expressing human GLP1R or human GCGR were suspended in growth media consisting of DMEM medium (GIBCO®), 10% FBS (GIBCO®), 1×NEAA(GIBCO®), 1×P/S (GIBCO®), 10 ug/mL Blasticidin (GIBCO®) and 200 μg/mL Hygromycin (GIBCO®). […] The cell suspensions (15 μL) were then added to the assay plates containing the peptide solutions (30,000 cells/well for human GCGR; 10,000 cells/well for human GLP1R). The cells were incubated for 1 hour at room temperature in the dark. Production of cAMP was determined using HitHunter™ cAMPXS kits (DiscoverX) following manufacturer protocol. The plates were incubated for overnight at room temperature in the dark. Luminescence was measured using an EnVision Multilabel plate reader (Perkin Elmer). Native GLP-1 and Glucagon (Bachem) are used as control peptides. EC50 values were calculated using uses a 4 parameter logistic fit based on the Levenberg-Marquardt algorithm.

[1] = cells expressing human GCGR, cAMP production, buffer with or without 20% human serum (not stated which), read-out: GCGR EC50 human
[2] = summary statement: EC50 at each of the glucagon and GLP-1 receptors, read-out: EC50 at the glucagon receptor
[3] = summary statement: EC50 at each of the glucagon and GLP-1 receptors, read-out: EC50 at the GLP-1 receptor

T2 sequence (P43220 24-463): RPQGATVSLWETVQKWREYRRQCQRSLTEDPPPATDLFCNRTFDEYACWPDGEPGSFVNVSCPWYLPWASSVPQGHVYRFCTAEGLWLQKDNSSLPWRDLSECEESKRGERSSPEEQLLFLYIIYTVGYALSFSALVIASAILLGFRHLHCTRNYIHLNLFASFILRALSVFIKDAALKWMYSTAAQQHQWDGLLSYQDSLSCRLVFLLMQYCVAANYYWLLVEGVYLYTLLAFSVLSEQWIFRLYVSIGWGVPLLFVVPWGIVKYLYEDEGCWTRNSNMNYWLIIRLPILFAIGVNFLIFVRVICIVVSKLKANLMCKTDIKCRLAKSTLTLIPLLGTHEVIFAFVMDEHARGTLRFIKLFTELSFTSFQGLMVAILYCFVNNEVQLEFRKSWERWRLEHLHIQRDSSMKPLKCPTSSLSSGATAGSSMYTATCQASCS
T1 sequence (P47871 26-477): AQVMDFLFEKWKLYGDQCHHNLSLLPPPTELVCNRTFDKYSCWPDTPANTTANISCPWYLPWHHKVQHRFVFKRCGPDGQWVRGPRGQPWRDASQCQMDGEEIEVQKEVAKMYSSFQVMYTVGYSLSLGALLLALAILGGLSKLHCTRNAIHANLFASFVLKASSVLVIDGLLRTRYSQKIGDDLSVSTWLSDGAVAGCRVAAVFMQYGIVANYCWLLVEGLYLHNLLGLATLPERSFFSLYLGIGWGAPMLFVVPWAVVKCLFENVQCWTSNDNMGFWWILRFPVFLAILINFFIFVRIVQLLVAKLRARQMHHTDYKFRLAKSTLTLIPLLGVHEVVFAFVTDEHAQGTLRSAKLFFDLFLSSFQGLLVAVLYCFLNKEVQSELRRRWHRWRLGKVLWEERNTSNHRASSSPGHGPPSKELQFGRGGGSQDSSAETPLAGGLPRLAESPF

Compound | EC50 (human GCGR; [1]) | hGCGR/hGLP1R (hTone) (human GCGR) | EC50 (human GCGR; [2]) | EC50 (human GLP1R; [3]) | EC50 (human GLP1R; cells expressing human GLP1R, cAMP production, buffer with or without 20% human serum (not stated which), read-out: GLP1R EC50 human)
CC(C)C[C@H](NC(=O)[C@H](Cc1ccc(O)cc1)NC(=O)[C@H](CCCCN)NC(=O)[C@H](CO)NC(=O)[C@H](Cc1ccc(O)cc1)NC(=O)[C@H](CC(=O)O)NC(=O)[C@H](CO)NC(=O)[C@@H](NC(=O)[C@H](Cc1ccccc1)NC(=O)[C@@H](NC(=O)CNC(=O)[C@H](CCC(N)=O)NC(=O)C(C)(C)NC(=O)[C@@H](N)Cc1c[nH]cn1)[C@@H](C)O)[C@@H](C)O)C(=O)N[C@@H](CC(=O)O)C(=O)N[C@@H](CO)C(=O)N[C@@H](CCCNC(=N)N)C(=O)N[C@@H](C)C(=O)N[C@@H](C)C(=O)N[C@@H](CCCCNC(=O)COCCOCCNC(=O)COCCOCCNC(=O)CC[C@H](NC(=O)CCCCCCCCCCCCCCCCCCC(=O)O)C(=O)O)C(=O)N[C@@H](CC(=O)O)C(=O)N[C@@H](Cc1ccccc1)C(=O)N[C@H](C(=O)N[C@@H](CCC(N)=O)C(=O)N[C@@H](Cc1c[nH]c2ccccc12)C(=O)N[C@@H](CC(C)C)C(=O)N[C@@H](CCS(C)(=O)=O)C(=O)N[C@@H](CC(=O)O)C(=O)N[C@H](C(N)=O)[C@@H](C)O)C(C)C [TP577] (H-H[Aib]QGTFTSDYSKYLDSRAAK([AEEA-AEEA-γGlu-C20 diacid])DFVQWL[Met(O2)]DT-NH2; N-terminus assumed) | 4.54 nM | 2.7 | < 5 nM | < 5 nM | 
CC(C)C[C@H](NC(=O)[C@H](Cc1c[nH]c2ccccc12)NC(=O)[C@H](CCC(N)=O)NC(=O)[C@@H](NC(=O)[C@H](Cc1ccccc1)NC(=O)[C@H](CC(=O)O)NC(=O)[C@H](CCCCNC(=O)COCCOCCNC(=O)COCCOCCNC(=O)CC[C@H](NC(=O)CCCCCCCCCCCCCCCCCCC(=O)O)C(=O)O)NC(=O)[C@H](C)NC(=O)[C@H](C)NC(=O)[C@H](CCCNC(=N)N)NC(=O)C(C)(C)NC(=O)[C@H](CC(=O)O)NC(=O)[C@H](CC(C)C)NC(=O)[C@H](Cc1ccc(O)cc1)NC(=O)[C@H](CCCCN)NC(=O)[C@H](CO)NC(=O)[C@H](Cc1ccc(O)cc1)NC(=O)[C@H](CC(=O)O)NC(=O)[C@H](CO)NC(=O)[C@@H](NC(=O)[C@H](Cc1ccccc1)NC(=O)[C@@H](NC(=O)CNC(=O)[C@H](CCC(N)=O)NC(=O)[C@@H](CO)NC(=O)[C@@H](N)Cc1c[nH]cn1)[C@@H](C)O)[C@@H](C)O)C(C)C)C(=O)N[C@@H](CCS(C)(=O)=O)C(=O)N[C@@H](CC(=O)O)C(=O)N[C@H](C(N)=O)[C@@H](C)O [TP578] |  |  | < 5 nM | < 5 nM | 4.95 nM
CC(C)C[C@H](NC(=O)[C@H](Cc1ccc(O)cc1)NC(=O)[C@H](CCCCN)NC(=O)[C@H](CO)NC(=O)[C@H](Cc1ccc(CNC(=O)COCCOCCNC(=O)COCCOCCNC(=O)CC[C@H](NC(=O)CCCCCCCCCCCCCCCCCCC(=O)O)C(=O)O)cc1)NC(=O)[C@H](CC(=O)O)NC(=O)[C@H](CO)NC(=O)[C@@H](NC(=O)[C@H](Cc1ccccc1)NC(=O)[C@@H](NC(=O)CNC(=O)[C@H](CCC(N)=O)NC(=O)C(C)(C)NC(=O)[C@@H](N)Cc1c[nH]cn1)[C@@H](C)O)[C@@H](C)O)C(=O)N[C@@H](CC(=O)O)C(=O)N[C@@H](C)C(=O)N[C@@H](CCCNC(=N)N)C(=O)N[C@@H](C)C(=O)N[C@@H](C)C(=O)N[C@@H](CCC(N)=O)C(=O)N[C@@H](CC(=O)O)C(=O)N[C@@H](Cc1ccccc1)C(=O)N[C@H](C(=O)N[C@@H](CCC(N)=O)C(=O)N[C@@H](Cc1c[nH]c2ccccc12)C(=O)N[C@@H](CC(C)C)C(=O)N[C@@H](CCS(C)(=O)=O)C(=O)N[C@@H](CC(=O)O)C(=O)N[C@H](C(N)=O)[C@@H](C)O)C(C)C [TP580] (H-H[Aib]QGTFTSD[Phe(4-CH2NH2)]([AEEA-AEEA-γGlu-C20 diacid])SKYLDARAAQDFVQWL[Met(O2)]DT-NH2; N-terminus assumed) | 1.09 nM | 2.4 | < 5 nM | < 5 nM | 
